Experimental data taken from patent publication US20070105840A1, “Pyrrolo-dihydroisoquinoline derivatives as pde10 inhibitors” (Altana Pharma AG, priority 2003, published 2007).

For `COc1cc2c(cc1OC)-c1c(C#N)c(-c3ccnc4ccccc34)c(C)n1CC2` [Example 23, 8,9-Dimethoxy-3-methyl-2-quinolin-4yl-5,6-dihydro-pyrrolo[2,1-a]isoquinoline-1-carbonitrile], the melting point was 239 to 243 °C.
`COc1cc2c(cc1OC)-c1c(C#N)c(-c3ccc(-c4nn[nH]n4)cc3)c(C)n1C(C)C2` (centres unmarked) [Example 57, 8,9-Dimethoxy-3,5-dimethyl-2-[4-(2H-tetrazol-5-yl)-phenyl]-5,6-dihydro-pyrrolo[2,1-a]isoquinoline-1-carbonitrile] showed a melting point of 204 to 207 °C.
For `CCOC(=O)c1c(-c2cc(C)c(O)c(C)c2)c(CC)n2c1-c1cc(OC)c(OC)cc1CC2C` (racemic) [Example 9, (5RS)-3-Ethyl-2-(4-hydroxy-3,5-dimethyl-phenyl)-8,9-dimethoxy-5-methyl-5,6-dihydro-pyrrolo[2,1-a]isoquinoline-1-carboxylic acid ethyl ester], the melting point was 188 to 190 °C.
In the case of `CCOC(=O)c1c(-c2cc(OC)c(OC)c(OC)c2)c(C)n2c1-c1cc(OC)c(OC)cc1CC2C` (racemic) [Example 10, (5RS)-8,9-Dimethoxy-3,5-dimethyl-2-(3,4,5-trimethoxy-phenyl)-5,6-dihydro-pyrrolo[2,1-a]isoquinoline-1-carboxylic acid ethyl ester], the melting point is reported as 116 to 118 °C.
`COc1cc2c(c(F)c1OC)CC(C)n1c(C)c(-c3cc(C)c(O)c(C)c3)c(C#N)c1-2` (centres unmarked) [Example 30, 7-Fluoro-2-(4-hydroxy-3,5-dimethyl-phenyl)-8,9-dimethoxy-3,5-dimethyl-5,6-dihydro-pyrrolo[2,1-a]isoquinoline-1-carbonitrile] showed a melting point of 166 to 168 °C.
For `COc1cc2c(cc1OC)-c1c(C#N)c(-c3ccncc3)c(C)n1C(C)C2` (centres unmarked) [Example 26, 8,9-Dimethoxy-3,5-dimethyl-2-pyridin-4-5,6-dihydro-pyrrolo[2,1-a]isoquinoline-1-carbonitrile], the melting point was 253 to 254 °C.
`COC(=O)c1c(-c2cn(S(=O)(=O)c3ccc(C)cc3)c3ccccc23)c(C)n2c1-c1cc(OC)c(OC)cc1CC2C` (centres unmarked) [Example 66, 8,9-Dimethoxy-3,5-dimethyl-2-[1-(toluene-4-sulfonyl)-1H-indol-3-yl]-5,6-dihydro-pyrrolo[2,1-a]isoquinoline-1-carboxylic acid methyl ester] showed a melting point of 177 to 179 °C.
Molecule `COc1cc2c(cc1OC)-c1c(C#N)c(-c3ccc(C(=O)O)cc3)c(C)n1C(C)C2` (centres unmarked) [Example 47, 4-(1-Cyano-8,9-dimethoxy-3,5-dimethyl-5,6-dihydro-pyrrolo[2,1-a]isoquinolin-2-yl)-benzoic acid] has a melting point of 287 to 289 °C.
With `CCOC(=O)c1c(-c2cc(C)c(O)c(C)c2)c(C)n2c1-c1cc(OC)c(OC)cc1CC2C` (racemic) [Example 5, (5RS)-(4-Hydroxy-3,5-dimethyl-phenyl)-8,9-dimethoxy-3,5-dimethyl-5,6-dihydro-pyrrolo[2,1-a]isoquinoline-1-carboxylic acid ethyl ester] the melting point was 158 to 161 °C.
Molecule `COC(=O)CCc1c(-c2ccncc2)c(C#N)c2n1CCc1cc(OC)c(OC)cc1-2` [Example 29, 3-(1-Cyano-8,9-dimethoxy-2-pyridin-4-yl-5,6-dihydro-pyrrolo[2,1-a]isoquinolin-3-yl)-propionic acid methyl ester] has a melting point of 191 to 193 °C.
With `CCOC(=O)c1c(-c2cc(C)c(O)c(C)c2)c(C)n2c1-c1cc(OC)c(OC)c(OC)c1CC2C` (stereo not drawn) [Example 18, (5RS)-2-(4-Hydroxy-3,5-dimethyl-phenyl)-7,8,9-bimethoxy-3,5-dimethyl-5,6-dihydro-pyrrolo[2,1-a]isoquinoline-1-carboxylic acid ethyl ester] the melting point was 144 °C.
Molecule `COc1cc2c(cc1OC)-c1c(C#N)c(-c3cc[n+]([O-])cc3)c(C)n1C(C)C2` (centres unmarked) [Example 41, 8,9-Dimethoxy-3,5-dimethyl-2-(1-oxy-pyridin-4-yl)-5,6-dihydro-pyrolo[2,1-a]isoquinoline-1-carbonitrile] has a melting point of 279 to 282 °C.
`COc1cc2c(cc1OC)-c1c(C#N)c(-c3ccc(NS(=O)(=O)N4CCOCC4)cc3)c(C)n1C(C)C2` (centres unmarked) [Example 58, Morpholine-4-sulfonic acid [4-(1-cyano-8,9-dimethoxy-3,5-dimethyl-5,6-dihydro-pyrrolo[2,1-a]isoquinolin-2-yl)-phenyl]-amide] showed a melting point of 223 to 225 °C.
With `COc1cc2c(cc1OC)-c1c(C#N)c(-c3cn(S(C)(=O)=O)c4ccccc34)c(C)n1C(C)C2` (centres unmarked) [Example 40, 2-(1-Methanesulfonyl-1H-indol-3-yl)-8,9-dimethoxy-3,5-dimethyl-5,6-dihydro-pyrrolo[2,1-a]isoquinoline-1-carbonitrile] the melting point was 219 to 221 °C.
Molecule `COc1cc2c(cc1OC)-c1c(C#N)c(-c3cc(C)c(O)c(C)c3)c(CN3CCOCC3)n1C(C)C2` (centres unmarked) [Example 44, 2-(4-Hydroxy-3,5-dimethyl-phenyl)-8,9-dimethoxy-5-methyl-3-morpholin-4-ylmethyl-5,6-dihydro-pyrrolo[2,1-a]isoquinoline-1-carbonitrile] has a melting point of 228 to 230 °C.
In the case of `COC(=O)CCc1c(-c2cc(C)c(O)c(C)c2)c(C#N)c2n1C(C)Cc1cc(OC)c(OC)cc1-2` (centres unmarked) [Example 27, 3-[1-Cyano-2-(4-hydroxy-3,5-dimethyl)-8,9-dimethoxy-5-methyl-5,6-dihydro-pyrrolo[2,1-a]isoquinolin-3-yl]-propionic acid methyl ester], the melting point is reported as 208 to 209 °C.
In the case of `CCOc1cc2c(cc1OC)-c1c(C#N)c(-c3ccc(C(=O)O)cc3)c(C)n1C(C)C2` (centres unmarked) [Example 50, 4-(1-Cyano-8-ethoxy-9-methoxy-3,5-dimethyl-5,6-dihydro-pyrrolo[2,1-a]isoquinolin-2-yl)-benzoic acid], the melting point is reported as 274 to 277 °C.
